From patent US20060264419A1 (priority 2003, published 2006)

These molecules were tested against 5-HT2A receptors (Rattus norvegicus, UniProt P14842) (assay: in-vitro affinity to 5-HT2A receptors, displacement of [3H]ketanserine (Example A1)). Details: read-out: HT2A IC50.
Format: binding
From the text: The 5-HT2A receptors are exposed both to [^3H]ketanserine (a substance which is known for its affinity to the receptor) and also to the test compound. The decrease in the affinity of [^3H]ketanserine to the receptor is an indication of the affinity of the test substance to the 5-HT2A receptor.

Chain of 5-HT2A receptors (P14842 whole entry): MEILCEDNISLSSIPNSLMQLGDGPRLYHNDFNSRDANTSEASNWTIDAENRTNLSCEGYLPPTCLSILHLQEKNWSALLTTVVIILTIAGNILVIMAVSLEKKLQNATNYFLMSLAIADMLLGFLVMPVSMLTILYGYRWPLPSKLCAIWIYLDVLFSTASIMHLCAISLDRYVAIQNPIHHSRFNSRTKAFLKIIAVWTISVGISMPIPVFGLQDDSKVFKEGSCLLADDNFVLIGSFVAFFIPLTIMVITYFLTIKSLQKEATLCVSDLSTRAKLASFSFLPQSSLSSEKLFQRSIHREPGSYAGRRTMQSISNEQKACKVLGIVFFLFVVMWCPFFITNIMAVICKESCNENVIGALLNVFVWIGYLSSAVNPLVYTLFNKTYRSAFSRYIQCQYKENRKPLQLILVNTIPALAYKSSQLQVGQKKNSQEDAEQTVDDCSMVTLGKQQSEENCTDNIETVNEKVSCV

| IC50 | Structure (SMILES) |
| --- | --- |
| 17 nM | Fc1ccccc1-c1c(C=CCN2CCOCC2)cnn1-c1ccc(-c2ccccc2)cc1 [Example 908, 4-{3-[1-Biphenyl-4-yl-5-(2-fluorophenyl)-1H-pyrazol-4-yl]allyl}morpholine] |
| 170 nM | Fc1ccccc1-c1c(CNCCCn2ccnc2)cnn1-c1ccc(-c2ccccc2)cc1 [Example 1001, [1-Biphenyl-4-yl-5-(2-fluorophenyl)-1H-pyrazol-4-ylmethyl]-(3-imidazol-1-ylpropyl)amine] |
| 190 nM | CN1CCN(Cc2cnn(-c3ccc(-c4ccc(F)cc4)cc3)c2-c2ccc(Cl)c(Cl)c2)CC1 [Example 1007, 1-[5-(3,4-Dichlorophenyl)-1-(4′-fluoro-biphenyl-4-yl)-1H-pyrazol-4-ylmethyl]-4-methyl-piperazine] |
| 270 nM | CCN(CC)CC1CCCCN1Cc1cnn(-c2ccc(-c3ccccc3)cc2)c1-c1ccccc1F (stereo not shown) [Example 1028, {1-[1-Biphenyl-4-yl-5-(2-fluorophenyl)-1H-pyrazol-4-ylmethyl]piperidin-2-ylmethyl}-diethylamine] |
| 200 nM | O=c1ccccn1Cc1cnn(-c2ccc(-c3ccccc3)cc2)c1-c1ccccc1F [Example 1012, 1-[1-Biphenyl-4-yl-5-(2-fluorophenyl)-1H-pyrazol-4-ylmethyl]-1H-pyridin-2-one] |
| 180 nM | Fc1ccccc1-c1c(CNCc2cccnc2)cnn1-c1ccc(-c2ccccc2)cc1 [Example 1004, [1-Biphenyl-4-yl-5-(2-fluorophenyl)-1H-pyrazol-4-ylmethyl]pyridin-3-ylmethylamine] |

Same assay, conditions: target not given; description names affinity to 5-HT2A receptors; read-out: IC50

| IC50 | Structure (SMILES) |
| --- | --- |
| 170 nM | Fc1ccccc1-c1c(CN2CC=CCC2)cnn1-c1ccc(-c2ccccc2)cc1 [(38), 1-[1-Biphenyl-4-yl-5-(2-fluorophenyl)-1H-pyrazol-4-ylmethyl]-1,2,3,6-tetrahydropyridine] |
| 430 nM | OC1CCN(Cc2cnn(-c3ccc(-c4ccccc4)cc3)c2-c2ccccc2F)CC1 [(81), 1-[1-Biphenyl-4-yl-5-(2-fluorophenyl)-1H-pyrazol-4-ylmethyl]-piperidin-4-ol] |
| 130 nM | CC1CCN(Cc2cnn(-c3ccc(-c4ccccc4)cc3)c2-c2ccccc2F)CC1 [(49), 1-[1-Biphenyl-4-yl-5-(2-fluorophenyl)-1H-pyrazol-4-ylmethyl]-4-methylpiperidine] |
| 220 nM | CN1CCN(Cc2cnn(-c3ccc(-c4ccccc4)nc3)c2-c2ccccc2F)CC1 [(57), 1-[5-(2-Fluorophenyl)-1-(6-phenylpyridin-3-yl)-1H-pyrazol-4-ylmethyl]-4-methylpiperazine] |
| 2300 nM | Fc1ccccc1-c1c(CNc2cnccn2)cnn1-c1ccc(-c2ccccc2)cc1 [(158), [1-Biphenyl-4-yl-5-(2-fluorophenyl)-1H-pyrazol-4-ylmethyl]-pyrazin-2-ylamine] |
| 1100 nM | Fc1ccccc1-c1cc(CN2CCOCC2)nn1-c1ccc(-c2ccccc2)cc1 [(44), 4-[1-Biphenyl-4-yl-5-(2-fluorophenyl)-1H-pyrazol-3-ylmethyl]-morpholine] |
| 820 nM | CN1CCN(Cc2cnn(-c3ccc(-c4ccccc4F)cc3)c2-c2ccccc2)CC1 [(96), 1-[1-(2′-Fluorobiphenyl-4-yl)-5-phenyl-1H-pyrazol-4-ylmethyl]-4-methylpiperazine] |

| Structure (SMILES) | IC50 |
| --- | --- |
| Fc1ccccc1-c1c(CN2CCCC2)cnn1-c1ccc(-c2ccccc2)cc1 [(35), 1-Biphenyl-4-yl-5-(2-fluorophenyl)-4-pyrrolidin-1-ylmethyl-1H-pyrazole] | 32 nM |
| CN1CCN(Cc2cnn(-c3ccc(-c4cc(F)ccc4F)cc3)c2-c2ccccc2)CC1 [(68), 1-[1-(2′,5′-Difluorobiphenyl-4-yl)-5-phenyl-1H-pyrazol-4-ylmethyl]-4-methylpiperazine] | 110 nM |
| CC(C)(C)OC(=O)N1CCN(Cc2cnn(-c3ccc(-c4ccccc4)cc3)c2-c2ccccc2F)CC1 [(54), tert-Butyl 4-[1-Biphenyl-4-yl-5-(2-fluorophenyl)-1H-pyrazol-4-ylmethyl]piperazine-1-carboxylate] | 82 nM |
